Measured values taken from US20140005126A1, “SCAFFOLD PEPTIDES” (ISOGENICA LTD, priority 2010, published 2014).
Where a SMILES comes first, the peptide text is derived from it. Bridges are numbered along the chain shown (N, C = ends). The star is where a group is joined. Biotin = O=C1N[C@H]2[C@H](CS[C@H]2CCCCC(=O)*)N1

Assays:
Plasma stability assay = type: in vitro ADME; details: mouse, 250 μM peptide, 37° C., HPLC area, one phase exponential decay
Experimental: Peptides were resuspended in Molecular Biology Grade water at a concentration of 3 mM. The WW-B1 peptide was added to 300 μl mouse plasma (Harlan) or PBS (control) to a final concentration of 250 μM (2 samples). The samples were incubated at 37° C. 40 μl aliquots were removed from sample A at 0, 12, 14, 16, 18, 20 and 22 hr and from sample B at 0, 2, 4, 6, 8 and 10 hr. To purify each aliquot, double the volume of 100% ethanol (80 μl) was added and incubated at −20° C. for a few hours or overnight. The samples were centrifuged and 80 μl supernatant recovered. 40 μl water with 0.1% TFA was added to each sample and 100 μl was injected onto a SunFire C18 HPLC column. Buffer A (0.1% TFA in Water) was run through the column followed by 10-50% Buffer B (0.1% TFA, 5% water in 95% acetonitrile) over 20 min. The fractions from the column were collected and analysed using an AXIMA mass spectrometer.

[1] = Far-UV CD analysis at different temperatures; type: physicochemical; details: 0.2 mg/ml peptide
Experimental: Peptides were resuspended in Molecular Biology Grade water or 10 mM sodium phosphate, pH 7, at a concentration of 200 μM to 1.4 mM. Far-UV scans were measured on an Aviv Model 410 spectrometer measuring at 0.5 nm intervals with a 1 sec averaging time, between 190 and 260 nm using 0.2 mg/ml peptide and a 1 nm bandwidth. Three scans were taken in total at each temperature and the results averaged. The CD scans were plotted using Aviv model 4.10 software, and the data were converted to molar ellipticity (M^−1 cm^−1). […] This far-UV spectrum is characteristic of other small structurally characterised β-sheet structures (Koepf et al. 1999, Protein Science, 8, 841-853; see FIG. 15).

VEGFR2-Fc fusion = target: T1, VEGFR2-Fc fusion (Homo sapiens, UniProt P35968); test: Real time binding assay by biolayer interferometry (Octet Red), steady state analysis
T1 construct: His tag (only implied: capture on TALON beads, detection with penta His-HRP); purchased R&D Systems
T1 sequence (P35968 with tags, fused parts or gaps): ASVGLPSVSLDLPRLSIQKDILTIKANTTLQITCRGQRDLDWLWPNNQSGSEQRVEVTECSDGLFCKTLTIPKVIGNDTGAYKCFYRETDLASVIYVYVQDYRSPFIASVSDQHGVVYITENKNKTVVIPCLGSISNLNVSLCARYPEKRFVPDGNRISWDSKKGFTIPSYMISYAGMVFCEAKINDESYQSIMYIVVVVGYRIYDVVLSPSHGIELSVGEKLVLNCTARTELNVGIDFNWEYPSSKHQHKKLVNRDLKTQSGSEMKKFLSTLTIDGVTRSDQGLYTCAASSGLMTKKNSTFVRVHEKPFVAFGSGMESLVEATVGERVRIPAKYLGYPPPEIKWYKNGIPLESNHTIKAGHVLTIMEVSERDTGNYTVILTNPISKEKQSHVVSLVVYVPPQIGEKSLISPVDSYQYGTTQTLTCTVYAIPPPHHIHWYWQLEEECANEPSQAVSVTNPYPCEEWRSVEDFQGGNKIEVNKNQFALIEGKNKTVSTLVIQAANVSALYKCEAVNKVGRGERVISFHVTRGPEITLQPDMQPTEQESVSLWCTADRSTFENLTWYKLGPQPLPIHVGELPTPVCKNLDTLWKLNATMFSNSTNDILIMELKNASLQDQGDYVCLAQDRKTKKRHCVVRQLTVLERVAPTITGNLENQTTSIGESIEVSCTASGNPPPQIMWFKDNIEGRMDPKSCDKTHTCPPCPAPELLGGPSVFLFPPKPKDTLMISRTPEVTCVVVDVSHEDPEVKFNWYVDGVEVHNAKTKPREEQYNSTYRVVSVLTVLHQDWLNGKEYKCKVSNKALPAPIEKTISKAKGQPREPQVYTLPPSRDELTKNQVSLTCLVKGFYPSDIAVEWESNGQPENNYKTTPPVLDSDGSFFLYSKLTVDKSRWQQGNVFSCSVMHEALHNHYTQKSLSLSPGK
Experimental: Alternatively, real-time binding assays between a chemically synthesised WW domain and ligand may be performed using biolayer interferometry with an Octet Red system (Fortebio, Menlo Park, Calif.). Biotinylated WW domain is immobilised to streptavidin biosensors (Fortebio) at a concentration of 50 ng/μl in PBS. Association curves are then detected by incubating WW domain-coated sensors with different concentrations of ligand (e.g. 1 to 100 nM in PBS), and dissociations detected by incubating the sensors in PBS. The dissociation constant for WW domain binding can be determined by steady state analysis.
Real-time binding assays between the peptides and VEGFR2-Fc fusion were performed using biolayer interferometry with an Octet Red system (Fortebio, Menlo Park, Calif.). WW peptides were immobilised on streptavidin biosensors (Fortebio) at a concentration of 2 μg/ml in kinetic buffer. Association curves were then detected by incubating the immobilised peptide with streptavidin-HRP (1 to 100 nM in kinetic buffer), and dissociations were detected by incubating the sensors in kinetic buffer.

[2] = target: T2, binding of VEGFR2 to VEGF (Homo sapiens, UniProt P35968); test: Competition ELISA: binding of VEGFR2 to VEGF-A coated wells in presence of WW domain peptide
T2 construct: His tag (only implied by detection with penta His-HRP); purchased R&D Systems
T2 sequence (P35968 with tags, fused parts or gaps): as above
Experimental: A competition assay was carried out in which binding of VEGFR2 to VEGF-A (VEGF) was competed by the presence of varying amounts of the selected modified WW domain peptide.
50 ng human VEGF (R&D Systems, Abingdon, UK) 1 μg/ml in PBS was coated per well onto a Maxisorp plate at 37° C. for 140 minutes. The wells were then blocked with 100 μl PBS containing 2% BSA for 55 minutes at room temperature. 1.25 ng VEGFR2 was preincubated with WW-B1 fused to maltose binding protein (MBP) in 50 μl PBS for 45 minutes at room temperature. The activity of the WW-B1 peptide was tested at serial dilutions from 10 μM to 156.25 nM. 50 μl 4% BSA in PBS was added to the preincubated VEGFR2 with WW-B1-MBP and the whole mixture was then added to the VEGF coated ELISA plate and incubated at room temperature for 55 minutes. The plate was then washed with 3 washes in PBS-Tween and 2 washes in PBS. Next 50 μl/well penta His-HRP (QIAgen, diluted 1:500 in 2% BSA in PBS) was added and the mixture incubated at room temperature for 55 minutes, before washing as before. ELISA signals were detected using SureBlue TMB peroxidase substrate (Insight biotechnology, Middlesex, UK) at 450 nm.
As a control, the above process was repeated with wild-type Pin1 WW domain peptide replacing WW-B1. The results are illustrated in FIG. 6.

half-life at 250 μM (Plasma stability assay) [h] | structure after heating to 95° C. and cooling to 25° C. [1] | CD peak at 227-231 nm at 95° C. (folding state) [1] | Kd (VEGFR2-Fc fusion; peptide on streptavidin biosensors, 2 μg/ml in kinetic buffer, steady state analysis (Example 4), read-out: dissociation constant / affinity for VEGFR2) [nM] | binding affinity to VEGFR2 compared with non-cyclised WW-B1 (VEGFR2-Fc fusion; tested as set out in Example 2) | binding affinity for VEGFR2 (concluded from competition assay) ([2]; control replacing WW-B1) | effect on the binding of VEGFR2 to VEGF ([2]; control replacing WW-B1 in the competition ELISA) | Compound
6.2 | able to reform its structure | unfolding |  |  |  |  | CC[C@H](C)[C@H](NC(=O)[C@H](CC(=O)O)NC(=O)[C@H](CC(N)=O)NC(=O)[C@@H](NC(=O)[C@H](Cc1ccc(O)cc1)NC(=O)[C@H](CC(C)C)NC(=O)[C@@H](NC(=O)[C@H](CCCNC(=N)N)NC(=O)CNC(=O)[C@@H]1CCCN1C(=O)[C@H](CO)NC(=O)[C@H](CO)NC(=O)[C@H](Cc1c[nH]c2ccccc12)NC(=O)[C@H](CCSC)NC(=O)[C@H](CCCCN)NC(=O)[C@H](Cc1ccc(O)cc1)NC(=O)[C@H](Cc1c[nH]c2ccccc12)NC(=O)CNC(=O)[C@@H]1CCCN1C(=O)[C@@H]1CCCN1C(=O)[C@H](CC(C)C)NC(=O)[C@H](CCCCN)NC(=O)[C@H](CCC(=O)O)NC(=O)[C@H](CCC(=O)O)NC(=O)[C@H](CC(=O)O)NC(=O)[C@H](C)NC(=O)[C@H](CCSC)NC(=O)CCCC[C@@H]1SC[C@@H]2NC(=O)N[C@@H]21)C(C)C)C(C)C)C(=O)N[C@H](C(=O)N[C@@H](Cc1c[nH]cn1)C(=O)N[C@@H](C)C(=O)N[C@@H](Cc1c[nH]cn1)C(=O)N[C@@H](CCCNC(=N)N)C(=O)N[C@@H](Cc1c[nH]c2ccccc12)C(=O)N[C@@H](CCC(=O)O)C(=O)N[C@@H](CCCNC(=N)N)C(=O)N1CCC[C@H]1C(=O)N[C@@H](CO)C(=O)NCC(N)=O)[C@@H](C)O [WW-B1] (Biotin-MADEEKLPPGWYKMWSSPGRVLYVNDITHAHRWERPSG-NH2; N-terminus and C-terminus assumed)
 | able to reform its structure | unfolding | 31 | comparable activity |  |  | CC[C@H](C)[C@@H]1NC(=O)[C@H](CC(=O)O)NC(=O)[C@H](CC(N)=O)NC(=O)[C@H](C(C)C)NC(=O)[C@H](Cc2ccc(O)cc2)NC(=O)[C@H](CC(C)C)NC(=O)[C@H](C(C)C)NC(=O)[C@H](CCCNC(=N)N)NC(=O)CNC(=O)[C@@H]2CCCN2C(=O)[C@H](CO)NC(=O)[C@H](CO)NC(=O)[C@H](Cc2c[nH]c3ccccc23)NC(=O)[C@H](CCSC)NC(=O)[C@H](CCCCN)NC(=O)[C@H](Cc2ccc(O)cc2)NC(=O)[C@H](Cc2c[nH]c3ccccc23)NC(=O)CNC(=O)[C@@H]2CCCN2C(=O)[C@@H]2CCCN2C(=O)[C@H](CC(C)C)NC(=O)[C@@H](NC(=O)[C@H](CCC(=O)O)NC(=O)[C@H](CCC(=O)O)NC(=O)[C@H](CC(=O)O)NC(=O)CCCC[C@@H]2SC[C@@H]3NC(=O)N[C@@H]32)CCCCNC(=O)CC[C@@H](C(=O)NCC(N)=O)NC(=O)[C@@H]2CCCN2C(=O)[C@H](CCCNC(=N)N)NC(=O)[C@H](CCC(=O)O)NC(=O)[C@H](Cc2c[nH]c3ccccc23)NC(=O)[C@H](CCCNC(=N)N)NC(=O)[C@H](Cc2c[nH]cn2)NC(=O)[C@H](C)NC(=O)[C@H](Cc2c[nH]cn2)NC(=O)[C@H]([C@@H](C)O)NC1=O [cyclised WW-B1] (Biotin-DEEKLPPGWYKMWSSPGRVLYVNDITHAHRWERPEG-NH2; lactam 4-35)
 |  |  |  |  | negligible | essentially no effect | MADEEKLPPGWEKRMSRSSGRVYYFNHITNASQWERPSG [wild-type Pin1 WW domain, peptide fragment of the human Pin1 protein, used as control]
